Measurements reported in publication PMC12514245, “Impaired migration and lung invasion of human melanoma by a novel small molecule targeting the transmembrane domain of death receptor p75^NTR” (EMBO Molecular Medicine, 2025).
Where “and” joins values, the source holds several entries; their conditions need not be identical. Identical values can stand only once.

Test system: A875-NT melanoma xenograft
Experiment: Melanoma lung invasion assay, A875-NT, treatment from one day before cell injection
Assay type: in vivo, SCID mice
Settings: for Photons/second/ mouse/week, Average: group average; for Photons/second/ mouse/week: single mouse
Experimental: Next, to assess the potential inhibitory effects of Np75-4A22 on melanoma cell migration and tissue invasion in vivo, we utilized the highly metastatic human A875 xenograft model. […] Initially, to mimic metastatic dissemination from the primary tumor site, A875-NT or A875-shp75 cells expressing GFP-Luc (for live-monitoring of tumor growth) were injected intravenously in female SCID mice 24 h following a single oral administration of Np75-A422 (200 mg/kg) or drug vehicle alone. Mice received 3 cycles of Np75-A422 (200 mg/kg/day) following a 5 day on and 2 days off drug schedule for a total of 3 weeks (Fig. 8A). Metastatic spread to the lungs was monitored weekly by luciferase activity using the Xenogen IVIS-200 Optical in vivo luciferase imaging system and mice were sacrificed after the third week. […] In addition, assessment of the metastatic spread was also quantified by histological assessment of non-consecutive lung sections stained for human nucleolin to detect the tumor cells. […] In addition, and as expected, high expression of p75^NTR was detected in lung tumors established by A875-NT cells but was negligible in tumors derived from A875-shp75 cells (Fig. EV10).
Eight-week-old female SCID mice (Charles River Laboratories, Shrewsbury, MA, USA) were housed in groups of three to five and maintained on a 12-h light/dark schedule with a temperature of 22 °C ± 1 °C and a relative humidity of 50% ± 5%. Food and water were available ad libitum. This research study was reviewed and approved by the University of Calgary Animal Care Committee (AC22-0054) and McGill University (AUP-JGH-8269) and adheres to established ethical principles and guidelines. A875-GFPLuc (A875-NT) or A875-GFPLuc shp75 (A875-shp75) cells harvested using Puck’s EDTA were resuspended in PBS and injected intravenously into SCID mice (5 × 10^5 cells/200 μl per mouse). Np75-4A22 was dissolved in 0.5% sodium carboxymethyl cellulose (NaCMC) in reverse osmosis H2O and administered by oral gavage at 200 mg/kg/day starting one day prior to intravenous (tail vein) injection of tumor cells and continued for 3 1-week cycles (cycle: 5 days on drug, 2 days off drug). Tumor spread to the lung was monitored weekly by luciferase activity using the Xenogen IVIS-200 Optical in vivo luciferase imaging system as described previously (Lun et al, [2016]) and by immunohistochemistry (IHC) at designated time points. IHC was performed after formalin fixation, paraffin embedding and sectioning of the lungs, using a human-specific mouse polyclonal nucleolin antibody (1:500 dilution) and detected using Dako liquid DAB+ Substrate Chromogen System (Dako: k3468, California, USA) followed by a hematoxylin counterstain (Sigma, Oakville, ON, Canada). Sections were mounted and imaged on an Olympus phase contrast microscope (Olympus Life Science, Tokyo, Japan). For immunofluorescence, sections were stained with anti-human nucleolin and anti-human p75NTR antibodies (1:1000 dilution), subsequently detected with 1:200 dilutions of Alexa Fluor™ 488 Goat anti-Mouse IgG (H + L) Highly Cross-Adsorbed Secondary Antibody and Alexa Fluor™ 568 Goat anti-Rabbit IgG (H + L) Cross-Adsorbed Secondary Antibody. Sections were further stained with DAPI to detect all nuclei. Between each treatment, TBS Automation Wash Buffer (Biocare Medical TWB945M) was employed. Images were taken with LSM800 confocal microscope and ZEN system.

Cc1cccc(-c2cncc(Nc3ccc(Br)c(Cl)c3Cl)n2)c1C [Np75-4A22] was tested, and the “Photons/second/ mouse/week, Average” value (A875-NT, 1wk) was 9.39E+04 Photons/second, the Photons/second/ mouse/week (A875-NT, 1wk) was 8.62E+04 Photons/second and 1.03E+05 Photons/second and 1.11E+05 Photons/second and 1.02E+05 Photons/second and 1.26E+05 Photons/second and 1.23E+05 Photons/second and 7.03E+04 Photons/second and 6.52E+04 Photons/second and 7.29E+04 Photons/second and 7.98E+04 Photons/second and the “Photons/second/ mouse/week, Average” value (A875-NT, 2wks) was 1.01E+05 Photons/second. The Photons/second/ mouse/week (A875-NT, 2wks) was 9.63E+04 Photons/second and 1.02E+05 Photons/second and 1.27E+05 Photons/second and 8.86E+04 Photons/second and 1.04E+05 Photons/second and 1.23E+05 Photons/second and 9.01E+04 Photons/second and 9.59E+04 Photons/second and 8.45E+04 Photons/second and 9.64E+04 Photons/second, the Photons/second/ mouse/week (A875-NT, 3wks) was 1.77E+05 Photons/second and 1.53E+05 Photons/second and 2.03E+05 Photons/second and 2.34E+05 Photons/second and 2.96E+05 Photons/second and 2.73E+05 Photons/second and 1.26E+05 Photons/second and 2.18E+05 Photons/second and 2.30E+05 Photons/second and 1.32E+05 Photons/second and the “Metastatic Nodules/Lung Section, Average” value (A875-NT, average of 5 non-consecutive slides per individual mouse) was 0.6 and 0.2 and 0.4 and 1 and 0. For the same compound, the “Cancer Cells/Lung Section, Average per mouse” value (A875-NT, average of 5 slides of one mouse) was 5.4 and 2 and 18.4 and 8 and 21.4 and 2.2 and 0, the “Cancer Cells/Lung Section, group Average” value (A875-NT, average of all mice) was 6.16 and the “Metastatic Nodules/Lung Section, group Average” value (A875-NT, average over all mice of the group) was 0.36. For the same compound, the “Metastatic Nodules/Lung Section, Slide 1” value (A875-NT, individual mouse, slide 1 of 5 non-consecutive slides/mouse) was 0 and 1, the “Metastatic Nodules/Lung Section, Slide 2” value (A875-NT, individual mouse, slide 2 of 5 non-consecutive slides/mouse) was 1 and 0 and the “Metastatic Nodules/Lung Section, Slide 3” value (A875-NT, individual mouse, slide 3 of 5 non-consecutive slides/mouse) was 0 and 1. For the same compound, the “Metastatic Nodules/Lung Section, Slide 4” value (A875-NT, individual mouse, slide 4 of 5 non-consecutive slides/mouse) was 0 and 1 and 2, the “Metastatic Nodules/Lung Section, Slide 5” value (A875-NT, individual mouse, slide 5 of 5 non-consecutive slides/mouse) was 2 and 1 and 0 and the “lung tumors (luciferase imaging)” value (oral 200 mg/kg/day, 3 cycles 5 days on/2 days off) was “dramatic reduction of lung tumors”. For the same compound, the “lung tumors by histology (human nucleolin; cancer cells and lesions)” value (oral 200 mg/kg/day, 3 weeks) was “marked reduction”.
